One data set relates to HCoV-OC43 (VR-1558). The experiment in a line: Anti coronavirus activity: viral CPE inhibition in Vero 76 cells (microscopy, neutral red). Type of data set: cell-based. Conditions: hCoV-OC43 (beta).
For another data set, the target named is BIKE (Homo sapiens, UniProt Q9NSY1). Put plainly: Kinase inhibition assay (HotSpot). Type of data set: biochemical. Conditions: 10 μM ATP; read-out: Compound IC50, BIKE. The source says:
(§1) In vitro profiling of lipid and tyrosine kinases was accomplished using the “HotSpot” assay platform.

Another data set addresses MNK2 (Homo sapiens, UniProt Q9HBH9). Put plainly: Kinase inhibition assay (HotSpot). The data set is classed as biochemical. The conditions noted are these: 10 μM ATP; read-out: Compound IC50, MNK2.
Excerpt: as §1

The next data set has as its target ABL2 (Homo sapiens, UniProt P42684). The experiment in a line: Kinase inhibition assay (HotSpot). Type of data set: biochemical. The conditions noted are these: 10 μM ATP; read-out: Compound IC50, ABL2.
Excerpt: as §1

Another data set deals with AAK1 (Homo sapiens, UniProt Q2M2I8). The experiment in a line: Kinase inhibition assay (HotSpot). Conditions: 10 μM ATP; read-out: Compound IC50, AAK1. Type of data set: biochemical.
Chain of AAK1 (Q2M2I8 whole entry): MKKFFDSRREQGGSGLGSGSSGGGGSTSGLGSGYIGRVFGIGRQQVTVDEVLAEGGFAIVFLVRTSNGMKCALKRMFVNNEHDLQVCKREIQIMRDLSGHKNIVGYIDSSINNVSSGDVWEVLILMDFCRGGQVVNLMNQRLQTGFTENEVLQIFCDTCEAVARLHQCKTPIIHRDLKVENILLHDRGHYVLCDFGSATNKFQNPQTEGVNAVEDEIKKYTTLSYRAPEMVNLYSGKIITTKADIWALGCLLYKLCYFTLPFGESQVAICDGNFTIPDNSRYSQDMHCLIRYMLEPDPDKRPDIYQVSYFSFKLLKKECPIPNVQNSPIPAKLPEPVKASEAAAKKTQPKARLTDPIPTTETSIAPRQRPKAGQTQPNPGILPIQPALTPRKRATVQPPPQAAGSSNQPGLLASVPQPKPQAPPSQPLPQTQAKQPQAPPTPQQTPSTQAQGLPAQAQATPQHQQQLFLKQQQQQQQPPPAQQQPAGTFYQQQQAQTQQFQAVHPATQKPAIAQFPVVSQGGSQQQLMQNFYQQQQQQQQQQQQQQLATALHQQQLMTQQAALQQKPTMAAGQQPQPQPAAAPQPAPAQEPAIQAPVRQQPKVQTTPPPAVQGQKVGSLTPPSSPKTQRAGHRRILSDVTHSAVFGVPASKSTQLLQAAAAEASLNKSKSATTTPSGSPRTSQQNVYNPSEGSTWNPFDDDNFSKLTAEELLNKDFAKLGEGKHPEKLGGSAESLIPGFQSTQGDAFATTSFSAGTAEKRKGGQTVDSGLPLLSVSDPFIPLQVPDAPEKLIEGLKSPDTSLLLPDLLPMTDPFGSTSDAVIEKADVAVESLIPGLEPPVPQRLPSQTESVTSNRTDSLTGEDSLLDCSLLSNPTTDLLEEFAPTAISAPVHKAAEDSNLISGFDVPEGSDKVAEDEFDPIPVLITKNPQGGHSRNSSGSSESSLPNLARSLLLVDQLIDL
Excerpt: as §1

A further data set has as its target PI3Kb (Homo sapiens, UniProt P42338). The experiment in a line: Kinase inhibition assay (HotSpot). Type of data set: biochemical. The conditions noted are these: 10 μM ATP; read-out: Compound IC50, PI3Kb.
Excerpt: as §1

A further data set addresses CSNK2A2 (Homo sapiens, UniProt P19784). The experiment in a line: Kinase inhibition assay (HotSpot). The data set is classed as biochemical. Conditions: 10 μM ATP; read-out: Compound IC50, CSNK2A2.
Excerpt: as §1

The next data set has as its target T1, GAK (Homo sapiens, UniProt O14976).
T1 sequence (O14976 1-1311): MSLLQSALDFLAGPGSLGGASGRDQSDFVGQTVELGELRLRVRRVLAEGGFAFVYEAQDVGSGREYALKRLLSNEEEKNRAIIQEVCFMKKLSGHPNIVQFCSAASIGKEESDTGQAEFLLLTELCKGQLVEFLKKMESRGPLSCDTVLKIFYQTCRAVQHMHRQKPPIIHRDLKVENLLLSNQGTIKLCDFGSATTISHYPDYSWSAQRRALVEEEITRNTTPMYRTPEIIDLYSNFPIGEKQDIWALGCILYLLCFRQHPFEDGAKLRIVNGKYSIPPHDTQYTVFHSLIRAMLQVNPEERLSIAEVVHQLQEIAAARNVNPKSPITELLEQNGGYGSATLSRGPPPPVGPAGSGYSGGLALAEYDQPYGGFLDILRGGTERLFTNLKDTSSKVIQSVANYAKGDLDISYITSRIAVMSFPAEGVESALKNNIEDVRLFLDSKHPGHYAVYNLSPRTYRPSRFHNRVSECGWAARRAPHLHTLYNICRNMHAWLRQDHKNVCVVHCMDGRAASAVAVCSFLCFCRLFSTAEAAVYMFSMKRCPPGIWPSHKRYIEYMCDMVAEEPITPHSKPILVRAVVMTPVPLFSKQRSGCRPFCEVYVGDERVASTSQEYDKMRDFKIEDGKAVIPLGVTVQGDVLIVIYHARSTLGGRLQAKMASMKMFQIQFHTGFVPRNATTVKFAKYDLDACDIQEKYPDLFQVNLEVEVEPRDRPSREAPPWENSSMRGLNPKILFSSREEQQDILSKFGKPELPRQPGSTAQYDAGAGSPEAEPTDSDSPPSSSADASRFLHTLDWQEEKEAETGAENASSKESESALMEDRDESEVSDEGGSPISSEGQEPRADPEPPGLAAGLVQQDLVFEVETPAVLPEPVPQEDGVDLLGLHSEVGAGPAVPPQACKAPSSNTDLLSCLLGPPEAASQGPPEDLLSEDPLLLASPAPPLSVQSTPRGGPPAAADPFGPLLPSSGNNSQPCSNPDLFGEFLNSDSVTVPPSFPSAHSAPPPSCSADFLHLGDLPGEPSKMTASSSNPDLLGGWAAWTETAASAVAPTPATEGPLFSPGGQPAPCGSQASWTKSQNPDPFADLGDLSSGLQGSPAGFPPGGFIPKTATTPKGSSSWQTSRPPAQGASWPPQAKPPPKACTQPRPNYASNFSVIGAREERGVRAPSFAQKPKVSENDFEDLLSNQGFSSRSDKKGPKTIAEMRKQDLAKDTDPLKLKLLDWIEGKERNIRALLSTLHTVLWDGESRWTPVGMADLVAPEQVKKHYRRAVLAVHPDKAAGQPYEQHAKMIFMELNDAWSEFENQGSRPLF
The experiment in a line: Kinase inhibition assay (HotSpot). The data set is classed as biochemical. The conditions noted are these: 10 μM ATP; read-out: Compound IC50, GAK.
Excerpt: as §1

The target in the next data set is CSNK2A1 (Homo sapiens, UniProt P68400). The experiment in a line: Kinase inhibition assay (HotSpot). The data set is classed as biochemical. The conditions noted are these: 10 μM ATP; read-out: Compound IC50, CSNK2A1.
Chain of CSNK2A1 (P68400 whole entry): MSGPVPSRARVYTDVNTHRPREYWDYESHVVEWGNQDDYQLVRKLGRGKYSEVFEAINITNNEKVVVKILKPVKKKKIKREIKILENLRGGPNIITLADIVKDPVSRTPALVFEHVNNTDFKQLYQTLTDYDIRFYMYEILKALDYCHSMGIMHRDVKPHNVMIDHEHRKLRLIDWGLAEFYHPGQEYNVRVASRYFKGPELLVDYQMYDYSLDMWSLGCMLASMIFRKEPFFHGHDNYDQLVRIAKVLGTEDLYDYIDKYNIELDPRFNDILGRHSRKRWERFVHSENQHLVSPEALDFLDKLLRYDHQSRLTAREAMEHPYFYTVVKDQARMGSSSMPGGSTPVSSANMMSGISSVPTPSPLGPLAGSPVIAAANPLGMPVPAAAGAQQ
Excerpt: as §1

Data set [1] deals with cell culture-derived HCV (HCVcc). Type of data set: cell-based, Hepatitis C virus.

Chain of BIKE (Q9NSY1 whole entry): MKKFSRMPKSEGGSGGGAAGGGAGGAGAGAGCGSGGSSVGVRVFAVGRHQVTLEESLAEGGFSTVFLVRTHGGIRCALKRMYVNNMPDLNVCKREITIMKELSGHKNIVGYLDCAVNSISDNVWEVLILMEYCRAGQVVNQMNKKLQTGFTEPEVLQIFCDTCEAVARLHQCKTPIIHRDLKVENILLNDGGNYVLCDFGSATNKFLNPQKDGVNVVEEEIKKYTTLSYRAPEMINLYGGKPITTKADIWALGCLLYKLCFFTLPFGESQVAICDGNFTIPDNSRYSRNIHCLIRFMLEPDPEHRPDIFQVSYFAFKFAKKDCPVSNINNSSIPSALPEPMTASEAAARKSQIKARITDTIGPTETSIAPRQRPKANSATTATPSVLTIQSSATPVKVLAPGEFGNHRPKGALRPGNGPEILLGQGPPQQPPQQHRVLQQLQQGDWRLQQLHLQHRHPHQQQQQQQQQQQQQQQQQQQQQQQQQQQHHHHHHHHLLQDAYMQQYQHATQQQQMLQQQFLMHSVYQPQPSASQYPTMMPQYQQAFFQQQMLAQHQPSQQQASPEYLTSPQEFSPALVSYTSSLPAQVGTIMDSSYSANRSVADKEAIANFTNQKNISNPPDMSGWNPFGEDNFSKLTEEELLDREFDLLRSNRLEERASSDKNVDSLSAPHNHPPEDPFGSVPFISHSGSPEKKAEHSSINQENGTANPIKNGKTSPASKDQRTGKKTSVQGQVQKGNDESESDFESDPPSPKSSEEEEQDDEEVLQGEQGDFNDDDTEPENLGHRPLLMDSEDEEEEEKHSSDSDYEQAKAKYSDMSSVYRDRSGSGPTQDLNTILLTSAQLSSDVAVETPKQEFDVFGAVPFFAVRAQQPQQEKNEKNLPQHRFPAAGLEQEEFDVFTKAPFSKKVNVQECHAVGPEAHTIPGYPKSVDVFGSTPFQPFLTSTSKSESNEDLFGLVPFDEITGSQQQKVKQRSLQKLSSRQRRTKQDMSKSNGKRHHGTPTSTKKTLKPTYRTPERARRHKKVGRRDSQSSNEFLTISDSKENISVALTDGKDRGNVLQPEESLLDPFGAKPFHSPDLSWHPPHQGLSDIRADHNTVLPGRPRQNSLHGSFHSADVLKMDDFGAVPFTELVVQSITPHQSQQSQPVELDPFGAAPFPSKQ
Chain of PI3Kb (P42338 whole entry): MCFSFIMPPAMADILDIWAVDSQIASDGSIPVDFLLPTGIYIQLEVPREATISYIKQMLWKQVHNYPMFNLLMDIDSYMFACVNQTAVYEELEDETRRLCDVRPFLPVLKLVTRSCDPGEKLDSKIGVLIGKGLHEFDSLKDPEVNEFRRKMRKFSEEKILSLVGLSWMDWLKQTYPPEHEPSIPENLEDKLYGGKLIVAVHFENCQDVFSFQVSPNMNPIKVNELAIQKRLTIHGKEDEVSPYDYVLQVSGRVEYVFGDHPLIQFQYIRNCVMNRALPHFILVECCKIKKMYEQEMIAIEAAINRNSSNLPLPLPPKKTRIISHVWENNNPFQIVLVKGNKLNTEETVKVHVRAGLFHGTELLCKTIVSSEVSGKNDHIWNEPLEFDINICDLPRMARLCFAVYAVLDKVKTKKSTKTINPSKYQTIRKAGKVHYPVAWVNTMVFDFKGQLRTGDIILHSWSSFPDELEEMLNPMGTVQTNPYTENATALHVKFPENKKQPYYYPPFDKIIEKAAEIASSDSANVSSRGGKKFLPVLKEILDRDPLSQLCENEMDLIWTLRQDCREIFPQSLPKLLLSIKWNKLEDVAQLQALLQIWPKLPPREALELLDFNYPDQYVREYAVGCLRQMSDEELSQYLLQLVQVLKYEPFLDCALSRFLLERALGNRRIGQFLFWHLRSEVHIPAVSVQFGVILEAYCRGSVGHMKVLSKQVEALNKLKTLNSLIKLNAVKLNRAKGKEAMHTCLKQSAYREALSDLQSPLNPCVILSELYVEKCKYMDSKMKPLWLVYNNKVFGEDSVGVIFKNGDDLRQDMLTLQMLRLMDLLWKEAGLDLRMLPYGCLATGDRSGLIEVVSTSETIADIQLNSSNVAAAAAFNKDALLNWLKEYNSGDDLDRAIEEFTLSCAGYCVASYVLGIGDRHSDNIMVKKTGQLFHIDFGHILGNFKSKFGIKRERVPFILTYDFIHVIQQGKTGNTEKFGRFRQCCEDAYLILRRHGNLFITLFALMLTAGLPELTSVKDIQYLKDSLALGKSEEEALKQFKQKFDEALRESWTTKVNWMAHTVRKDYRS
Chain of PI3Kb (P27986 whole entry partner): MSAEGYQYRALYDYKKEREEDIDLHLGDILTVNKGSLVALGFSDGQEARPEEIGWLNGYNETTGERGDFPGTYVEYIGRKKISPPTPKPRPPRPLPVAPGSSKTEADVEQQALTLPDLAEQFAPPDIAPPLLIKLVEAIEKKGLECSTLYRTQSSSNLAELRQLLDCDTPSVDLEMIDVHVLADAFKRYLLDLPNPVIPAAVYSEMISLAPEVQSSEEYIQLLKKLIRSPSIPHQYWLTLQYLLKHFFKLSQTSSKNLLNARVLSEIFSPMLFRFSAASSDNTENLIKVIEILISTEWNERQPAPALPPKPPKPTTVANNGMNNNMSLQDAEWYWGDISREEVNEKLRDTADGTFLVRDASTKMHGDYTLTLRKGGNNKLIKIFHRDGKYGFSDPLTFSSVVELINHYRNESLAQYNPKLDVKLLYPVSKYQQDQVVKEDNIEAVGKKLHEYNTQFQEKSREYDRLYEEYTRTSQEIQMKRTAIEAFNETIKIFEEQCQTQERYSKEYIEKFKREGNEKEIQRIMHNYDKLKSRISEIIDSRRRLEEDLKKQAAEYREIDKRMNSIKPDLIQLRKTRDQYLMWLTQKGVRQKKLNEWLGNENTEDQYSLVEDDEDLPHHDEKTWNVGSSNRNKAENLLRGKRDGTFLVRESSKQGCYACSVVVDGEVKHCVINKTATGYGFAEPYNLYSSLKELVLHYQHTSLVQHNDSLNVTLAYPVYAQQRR
Chain of MNK2 (Q9HBH9 whole entry): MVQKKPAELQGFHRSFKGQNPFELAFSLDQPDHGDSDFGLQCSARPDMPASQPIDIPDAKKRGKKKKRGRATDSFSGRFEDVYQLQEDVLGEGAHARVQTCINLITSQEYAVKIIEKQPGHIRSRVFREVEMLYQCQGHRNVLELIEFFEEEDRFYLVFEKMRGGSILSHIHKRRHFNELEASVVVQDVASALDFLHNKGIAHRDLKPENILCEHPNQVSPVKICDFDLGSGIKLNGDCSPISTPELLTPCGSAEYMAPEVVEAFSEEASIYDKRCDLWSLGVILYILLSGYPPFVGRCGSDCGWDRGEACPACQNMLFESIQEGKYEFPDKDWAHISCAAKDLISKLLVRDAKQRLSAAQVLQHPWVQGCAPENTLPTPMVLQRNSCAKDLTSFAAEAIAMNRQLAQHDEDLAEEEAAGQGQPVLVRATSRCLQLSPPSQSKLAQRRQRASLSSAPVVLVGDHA

`COc1cc(-c2cc(=O)c3c(O)cc(O)c(CC=C(C)C)c3o2)ccc1O` [FBL-03G] yielded an EC50 in the data set with HCoV-OC43 (VR-1558) of 420 nM. Also, the “SI (CC50/EC50)” value with HCoV-OC43 (VR-1558) amounted to 6.9. In addition, the IC50 worked out at 258 nM at BIKE; 549 nM at MNK2; 274 nM at ABL2; 4 nM at AAK1; 136 nM on PI3Kb; 4 nM on CSNK2A2. The IC50 at GAK was found to be 8 nM; on CSNK2A1 it was 20 nM. For the same molecule, the CC50 in the data set with Vero 76 cells stood at 2900 nM.
For Human interferon alpha-2b [rIFNa-2b], the EC50 in [1] was 0.63 IU/mL.

The IC50 is the concentration at which inhibition is half-maximal. A word on the CC50: it is the concentration that lowers cell viability or growth by half.
